The source of these data is paper PMC8069799, “Alpha-Glucosidase Inhibitory Diterpenes from Euphorbia antiquorum Growing in Vietnam” (Molecules, 2021).

In experiment [1] the target is Saccharomyces cerevisiae α-glucosidase (E.C 3.2.1.20). Briefly: Alpha-glucosidase inhibition assay. Type of experiment: biochemical. The conditions noted are these: 0.2 U/mL enzyme, 5.0 mM pNPG, pH 6.9 sodium phosphate buffer, 37 °C, triplicate; read-out: Alpha-glucosidase inhibitory activity IC50. On the procedure:
The alpha-glucosidase (0.2 U/mL) and substrate (5.0 mM pNPG) were dissolved in 100 mM pH 6.9 sodium phosphate buffer. The inhibitor (50 µL) was preincubated with alpha-glucosidase at 37 °C for 20 min, and then the substrate (40 µL) was added to the reaction mixture. The enzymatic reaction was carried out at 37 °C for 20 min and stopped by adding 0.2 M Na2CO3 (130 μL). Enzymatic activity was quantified by measuring absorbance at 405 nm (CLARIOstar plus, BMG LABTECH, Ortenberg, Germany). All samples were analyzed in triplicate at five different concentrations around the IC50 values, and the mean values were retained. The inhibition percentage (%) was calculated by the following equation:Inhibition (%) = [1 − (Asample/Acontrol)] × 100.(1)

The subject of another experiment is alpha-glucosidase. In words: Inhibitory type assay of 3 on alpha-glucosidase (Lineweaver–Burk plots, secondary plots). Type of experiment: biochemical, yeast. How it is done: In order to examine the inhibition mechanism of 3, their activity was measured at the different concentration of 4-nitrophenyl […] (pNPG).
The mechanisms of inhibition of alpha-glucosidase by 3 were determined by Lineweaver–Burk plots (Microsoft Excel 2010, Redmond, WA, USA), using methods similar to those reported in the literature. Enzyme inhibition due to various concentrations of the 3 were evaluated by monitoring the effects of different concentrations of the substrate. For Lineweaver–Burk double reciprocal plots 1/enzyme velocity (1/V) vs. 1/substrate concentration (1/[S]), the inhibition type was determined using various concentrations of pNPG (1 mM, 2 mM, and 4 mM) as a substrate in the presence of different concentrations of the test compound (0, 13.8, 27.7, and 55.5 µM). The experiments were carried out in three replicates. The mixtures were incubated at 37 °C and the optical density was measured at 405 nm every 1 min for 30 min with the Clariostar Labtech microplate reader (Ortenberg, Germany). Optimal concentrations of the tested compound were chosen based on the IC50 value. The inhibition constants were obtained graphically from secondary plots (Microsoft Excel 2010, Redmond, WA, USA).

With `CC1(C)C(O)CC(O)C2(C)C3CC4CCC3(CCC12)CC4(O)CO` (single isomer, unassigned; ent-1) [Compound 1, ent-1α,3α,16β,17-tetrahydroxyatisane], the IC50 in experiment [1] is 125 µM.

With `CCOC(=O)CC[C@]1(C)[C@@H](C(C)(C)O)CC[C@@]23CC[C@@H](C[C@H]21)[C@](O)(CO)C3` (single isomer, unassigned; ent-3) [Compound 2, ethyl ent-3,4-seco-4,16β,17-trihydroxyatisane-3-carboxylate], the half-maximal inhibitory concentration (IC50) in experiment [1] is 131 µM. `CC(=O)O[C@H]1CC[C@@]2(C)C3C[C@@H]4CC[C@@]3(CC[C@@H]2C1(C)C)C[C@@]4(O)CO` (single isomer, unassigned; ent-3) [Compound 4, ent-3α-acetoxy-16β,17-dihydroxyatisane]: the IC50 in experiment [1] worked out at 102 µM. In the case of `CC1(C)OC[C@@]2(C[C@]34CC[C@H]2C[C@H]3[C@]2(C)CCC(=O)C(C)(C)[C@H]2CC4)O1` [Compound 3, ent-atisane-3-oxo-16β,17-acetonide], the IC50 in experiment [1] was 69.6 µM. Besides, in the experiment with alpha-glucosidase (Lineweaver–Burk plots, Vmax decreased while Km remained constant), the inhibition type result was “noncompetitive inhibitor”. In addition, on alpha-glucosidase (pNPG 1, 2, 4 mM, inhibitor 0, 13.8, 27.7, 55.5 µM, secondary plot of slope vs. inhibitor concentration, read-out: inhibition constant (Ki)), the inhibition constant (Ki) is 65.8 µM.

Turning to `CC1(C)C(=O)CC[C@@]2(C)[C@H]1CC[C@@]13C[C@H](CC[C@@H]12)[C@@](O)(CO)C3` [Compound 6, calliterpenone], in experiment [1], the concentration for half-maximal inhibition (IC50) came to 156 µM.

`CC(=O)OC1C(C)C(=O)C23CC(C)C(O)C2(C=C(C)C(O)C(O)C2C1C2(C)C)O3` (centres unmarked) [Compound 7, ingol 12-acetate]: the IC50 in experiment [1] worked out at 115 µM.
